Laboratory results from US5545667A, “Methods for treating neoplasms with betaines” (The Clorox Company, priority 1994, dated 1996).
Where a name gives a salt, the structure may show the parent alone.

Legend:
alloreactive Tc cells = conditions: dosages between 10 ng/ml and 100 ug/ml; WO85/05031; cited from earlier work
PAM 212 cells = assay: Cell growth inhibition assay (surfactants, 3-4 days, Coulter counter), PAM 212; type: cell-based, mouse; conditions: PAM212; PAM 212 mouse keratinocyte-derived tumor cells; 3-4 days; read-out: IC50 (uM conc. inhibiting growth of the cells by 50%)
Protocol: (§1) Established cell lines are the system of choice for the prescreening of unknown compounds for antineoplastic activity. The tumor cell line screen works on the following principle. Cancer cells, if provided with enough nutrients, will grow unchecked in vitro, allowing researchers to grow many types of cancer cells outside the body. To perform an assay, standard amounts of the various cancer cells are placed in individual wells of a microtiter plate, and incubated with the potential antineoplastic compound of interest, for a sufficient period of time to allow for at least a 6-fold control growth, generally 1 to 5 days depending on cell origin. At the end of the incubation period, the cell lines are stained and assayed by a variety of means including, for example, proteins stains or a colorimeter for normal growth, growth inhibition or cytotoxicity. These assays measure a compound's ability to inhibit cell growth and a positive response of the compounds in these assays would be indicative of the therapeutic potential of these compounds. See, for example, the protocols and data presented in Laskin et al., (1979) Cancer Res 39:383-390 for 5-fluorouracil in mouse and human cells in culture.
(§2) A total of ten cell lines were used to evaluate the growth inhibitory potency of the various surfactants. In these studies, human, rat, mouse and bovine cells were used. A spectrum of different tumor cell types were used including those derived from keratinocytes (PAM 212), leukemias (HL-60, U-937 and K-562), an epitheloid carcinoma (HeLa) and melanoma (B-16). The B16 melanoma was used since this is a common cell type used to evaluate antimetastatic activity of test compounds. The effect of the surfactants on three fibroblast cell lines (C3H 10T1/2, NIH 3T3 and R6) were also evaluated for comparison to the tumor cell lines. The activity of the surfactants was also evaluated using pulmonary aortic endothelial cells for effectiveness as antiangiogenic agents.
(§3) PAM 212 cells are a mouse keratinocyte-derived tumor cell line. U-937 cells are a human histiocytic tumor cell line. HeLa cells are an epitheloid tumor cell line. Three murine fibroblast cells lines tested included the mouse fibroblast cell line, C3H 10T1/2, the rat fibroblast cell line R6, and the NIH 3T3 mouse fibroblast cell line. The human leukemia cell line HL-60 and the mouse melanoma B-16 cell were also tested. K-562 cells were from the American Type Culture Collection. All cells were grown in Dulbecco's modified Eagle's medium in a 37° C. incubator in an atmosphere of 5% CO2.
(§4) For growth inhibition assays, cells were seeded at low density (2.5×10^4 cells in 0.5 ml of culture medium) into 24-well tissue culture plates (Falcon Labware, Lincoln Park, N.J.). After 24 hours at 37° C., increasing concentrations (1 to 100 uM) of the surfactants were added to the cells in the culture plate. Control cultures were incubated in the absence of any surfactant. The cells were then incubated for 3-4 days to allow for growth. Cells from individual wells in the culture plate were then removed and duplicate samples taken for counting using a Coulter counter. To remove adherent cells the plates were treated with 0.25% trypsin/0.2% EDTA (GIBCO, Grand Island, N.Y.).

C3H 10T1/2 cells = assay: Cell growth inhibition assay, C3H 10T1/2; type: cell-based, mouse; conditions: C3H 10T1/2 mouse fibroblasts; 3-4 days; read-out: IC50 (uM conc. inhibiting growth of the cells by 50%)
Protocol: as §1, §2, §3, §4

HL-60 cells = assay: Cell growth inhibition assay, HL-60; type: cell-based, human
Protocol: as §1, §2, §3, §4

NIH 3T3 cells = assay: Cell growth inhibition assay, NIH 3T3; type: cell-based, mouse; conditions: NIH3T3; NIH 3T3 mouse fibroblasts; 3-4 days; read-out: IC50 (uM conc. inhibiting growth of the cells by 50%)
Protocol: as §1, §2, §3, §4

K-562 cells = assay: Cell growth inhibition assay, K-562; type: cell-based; conditions: Homo sapiens, K562; K-562 leukemia cells; 3-4 days; read-out: IC50 (uM conc. inhibiting growth of the cells by 50%)
Protocol: as §1, §2, §3, §4

B-16 cells = assay: Cell growth inhibition assay, B-16 melanoma; type: cell-based, mouse; conditions: B16; B-16 mouse melanoma cells; 3-4 days; read-out: IC50 (uM conc. inhibiting growth of the cells by 50%)
Protocol: as §1, §2, §3, §4

R6 cells = assay: Cell growth inhibition assay, R6; type: cell-based, rat; conditions: Fibroblast; R6 rat fibroblasts; 3-4 days; read-out: IC50 (uM conc. inhibiting growth of the cells by 50%)
Protocol: as §1, §2, §3, §4

CPA-5 cells = assay: Cell growth inhibition assay, CPA-5 endothelial cells; type: cell-based, bovine; conditions: Bos taurus, CPA-5 bovine aortic endothelial cells, 3-4 days, read-out: IC50 (uM conc. inhibiting growth of the cells by 50%)
Description: as §2, §3, §4
The compounds were tested as inhibitors of growth in the bovine aortic endothelial cell line CPA-5 as taught in Example 2 in order to evaluate the possibility that they may be anti-angiogenesis agents. A hallmark of angiogenesis is the outgrowth of endothelial cells which are required in the formation of new blood vessels. This process is a critical factor in the vascularization of tumors. Inhibition of neovascularization limits the growth of tumors and would be an effective means of treating cancer. FIG. 3 illustrates that three of the compounds, 8-3S, 12-5B and 12-1B, had no activity against the CPA-5 cell line in the concentration range tested (IC50 =>100 uM), while only relatively high concentrations of 12-3S (IC50 =70 uM) were effective in inhibiting the growth of CPA-5 cells. As indicated above, with several exceptions, these compounds were also not very effective in inhibiting the growth of each of the other cell types.

[1] = Critical micelle concentration (cmc); type: physicochemical
Description: "Critical micelle concentration" or "cmc" refers to the point at which micelle formation begins.

ten cell lines = assay: Cell growth inhibition assays, panel of cell lines; type: cell-based, human, rat, mouse and bovine
Description: as §2, §3, §4

[2] = tested on: HeLa cells, DNA synthesis; assay: DNA synthesis in HeLa cells (3H-thymidine); type: cell-based
Protocol: (§5) The 16-5B compound was evaluated further using HeLa cells to gain some insight into the mechanism of action of this group of compounds. In these studies, the ability of this compound to inhibit macromolecular synthesis in the cells was examined. The effects of 16-5B on DNA, RNA and protein synthesis was monitored using labeled thymidine, uridine or leucine, respectively. These precursors readily incorporate into the appropriate cellular macromolecules in the cells.
(§6) For assays of macromolecular biosynthesis in HeLa cells, cells were seeded into 60 mm culture dishes (Falcon Labware, Lincoln Park, N.J.) at a density 1×10^5 /ml in 5 mls of cell culture medium. Cells were allowed to grow at 37° C. for 48 hours before use. Culture plates were then removed from the incubator and washed with phosphate buffered saline. The cells were then incubated with increasing concentrations of the 16-5B in 2 ml of serum-free Dulbecco's modified Eagle's medium supplemented with 0.075% sodium bicarbonate. Control cultures were incubated in cell culture medium without surfactant. […] Two 0.5 ml aliquots were neutralized and counted for radioactivity using a scintillation counter.

[3] = tested on: HeLa cells, RNA synthesis; assay: RNA synthesis in HeLa cells (3H-uridine); type: cell-based; conditions: Homo sapiens, FIG. 2, 2 hours 3H-uridine, read-out: IC50 for uridine uptake (RNA synthesis)
Protocol: as §5, §6

[4] = tested on: HeLa cells, protein synthesis; assay: Protein synthesis in HeLa cells (3H-leucine); type: cell-based; conditions: Homo sapiens, FIG. 2, 4 hours 3H-leucine, read-out: IC50 for leucine uptake (protein synthesis)
Protocol: as §5, §6

Row | IC50 (HL-60 cells; HL-60 human leukemia cells, 3-4 days, read-out: IC50 (uM conc. inhibiting growth of the cells by 50%)) [µM] | IC50 (K-562 cells) [µM] | IC50 (B-16 cells) [µM] | cmc [1] [µM] | IC50 ([2]; Homo sapiens, FIG. 2, 1 hour 3H-thymidine, read-out: IC50 for thymidine uptake (DNA synthesis)) [µM] | IC50 [3] [µM] | IC50 [4] [µM] | SMILES | immunosuppressive on alloreactive Tc cells (alloreactive Tc cells) | IC50 (PAM 212 cells) [µM] | IC50 (C3H 10T1/2 cells) [µM] | fold greater sensitivity of HL-60 among the leukemia cells (HL-60 cells; HL-60 versus other leukemia cells) [fold] | IC50 (NIH 3T3 cells) [µM] | IC50 (R6 cells) [µM] | IC50 (CPA-5 cells) [µM] | fold concentration required to inhibit K-562 and U-937 growth relative to HL-60 (ten cell lines; K-562 and U-937 versus HL-60) | fold concentration range spanned by the IC50's (ten cell lines; across cell lines) [fold] | IC50 (ten cell lines; all / all other cell lines tested, read-out: IC50 over the cell lines tested (range or bound)) [µM] | activity against all of the cell lines tested (ten cell lines; growth inhibition) | selective inhibition of macromolecular synthesis ([2]; DNA, RNA and protein synthesis compared)
1 | – | – | – | – | – | – | – | CCCCCCCCCCCC[N+](C)(C)CCCCCCCCCCCC.[Br-] [didodecyl dimethyl ammonium bromide] | immunosuppressive on alloreactive Tc cells | – | – | – | – | – | – | – | – | – | – | –
2 | 0.5 | 5.5 | 20 | 10 | 30 | 30 | 30 | CCCCCCCCCCCCCCCC[N+](C)(C)CCCCCC(=O)[O-] [16-5B, N-(5-carboxypentyl)-N,N-dimethyl-1-hexadecanaminium hydroxide inner salt] | – | 6 | 53 | 10 to 100 | 24 | 18 | 18 | approximately ten | 100 | 0.5 to 53 | considerable activity against all of the cell lines tested | does not appear to selectively inhibit any of these processes
